Results taken from publication PMC9920413, “New Bicyclic Pyridine-Based Hybrids Linked to the 1,2,3-Triazole Unit: Synthesis via Click Reaction and Evaluation of Neurotropic Activity and Molecular Docking” (Molecules, 2023).

Assays:
rats [1] = assay: Electroshock retrograde amnesia, conditioned response of passive avoidance (CRPA); type: in vivo; settings: 1000 mg/kg, study for 5 min
Procedure: Test for learning and memory. The antiamnesic properties of the compounds were studied using an electroshock amnesia model modified by J. Bures, O. Buresova. In rats, a conditioned passive avoidance reaction (CRPA) to a dark-light setting was developed, while the training of the animals with CRPA was recorded. The residence times in the light and dark compartments were recorded for 5 min (300 s). Then, in the dark compartment, the animal received a single current shock (0.4 mA) through the electrode floor (training). To obtain amnesia, a maximum electroconvulsive seizure is induced in animals (conducting a maximum electric current of 50 Hz for 0.2 s through corneal electrodes). Conducting an electric shock immediately after training causes the erasure of the memory trace. The test for reproduction is carried out 24 h after training—after the development of CRPA. During this period, the control animals forget the training and prefer to be in the dark part of the chamber. An increase in the time spent by rats in the light compartment compared to the control on the second day indicates the presence of antiamnestic properties of the compounds.

[2] = test system: thiosemicarbazide (TSC)-induced convulsions; assay: Thiosemicarbazide (TSC) seizures; type: in vivo, mice; settings: mice; for response vs control in vivo at 100 mg/kg: Mus musculus, ip, compound 100 mg/kg i.p., relative to control = 1.0, read-out: Latency of Convulsions, Induced by TSC, I (index of latent period of TSC seizures); for Latency of Convulsions, Induced by TSC, M ± M: compound 100 mg/kg i.p. 45 min before TSC 18 mg/kg s.c.
Procedure: (§1) The study of the anticonvulsant activity of hybrids 7a–u was assessed by evaluating the antagonism to pentylenetetrazole (PTZ), thiosemicarbazide convulsive seizures, and maximal electroshock-induced seizures (MES). The PTZ-induced test is considered an experimental model for the clonic component of epilepsy seizures and the prognostic anxiolytic activity of the compounds. PTZ is a common convulsive agent used in animal models to investigate the mechanisms of seizures. The model of thiosemicarbazide (TSC) seizures (affecting the exchange of GABA) causes clonic seizures similar to pentylenetetrazole ones. The MES test is used as an animal model for the generalization of tonic seizures in epilepsy. The neurotoxicity and side effects of the compounds (movement coordination disorder, myorelaxation, and ataxia) were also studied on mice with the “rotating rod”[29] test.
Thiosemicarbazide, an antimetabolite of GABA inhibitor (glutamic acid decarboxylase) in the brain, is administered subcutaneously to mice at a dose of 18 mg/kg as a 0.5% solution, which causes clonic convulsions in animals. Anti-thiosemicarbazide activity was evaluated based on the latency time of the onset of seizures. Compounds were administered intraperitoneally at doses of 100 mg/kg in suspension with carboxymethylcellulose and Tween-80 45 min before administration of thiosemicarbazide.

[3] = test system: pentylenetetrazole (PTZ)-induced convulsions; assay: Antagonism to pentylenetetrazole (PTZ) convulsions; type: in vivo; settings: for ED50: Mus musculus, mice, i.p. 45 min before PTZ 90 mg/kg s.c., confidence limits in brackets, p = 0.05, read-out: ED50 (by PTZ antagonism); for TI: therapeutic index TI = LD50/ED50
Procedure: as §1
The anticonvulsant effect of the newly synthesized compounds was investigated by tests comprising pentylenetetrazole, thiosemicarbazide convulsions, and maximal electroshock (MES). Outbred mice (weight 18–22 g) were used for the study. […] Each animal is placed into an individual plastic cage for observation lasting 1 h. Seizures and clonic convulsions were recorded. […] The control animals were administered as an emulsifier. Every dose of each test compound was studied in six animals.
(§2) Adverse neurotoxic (muscle relaxant) effects of compounds were studied at doses of 50 to 500 mg/kg when administered intraperitoneally, as well as reference drugs in effect at anticonvulsant doses. Myorelaxation was investigated with the test of a “rotating rod” in mice. To this end, mice were planted on a metal rod with a corrugated rubber coating, which rotated at a speed of 5 revolutions per minute. The number of animals that cnot stay on it for 2 min was determined. To determine the ED50, neurotoxic TD50, and LD50, the statistical method of penetration by Litchfield and Wilcoxon was used.

mice = assay: Forced swimming test; settings: 50 mg/kg, 6 min; for Total Time of Immobilization: control 42.0 ± 7.24; for Total Time of Active Swimming: control 318.0 ± 8.36;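 as to all read-outs here: mice made to swim in a water-filled glass vessel under natural light, with durations of active swimming and immobility recorded across the 6 min session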
Procedure: Forced swimming test. To assess “despair and depression”, the “compelling swimming” model was used. Experimental animals were forced to swim in a glass container (height 22 cm, diameter 14 cm), filled 1/3 with water. […] The latent period of immobilization, the total duration of active swimming and immobilization are fixed at 6 min (the experiments were conducted under natural light).

mouse = assay: Elevated plus maze (EPM) test; type: in vivo; settings: 50 mg/kg i.p., 5 min; for Time Spent in the Open Arms: control 2.6 ± 1.6; for Number of Entries into the Closed Arms: control 9.4 ± 1.6; for Time Spent in the Center: control 28.2 ± 3.12; for Time Spent in Closed Arms: control 269.2 ± 10.4
Text: Elevated plus maze—EPM test. Anti-anxiety and sedative effects were studied on mouse a model of the “elevated plus maze”. The labyrinth is a cruciform machine raised above the floor, with a pair of open and closed sleeves opposed to each other. Normal animals prefer to spend most of their time in the closed (dark) sleeves of the labyrinth. The anxiolytic effect of the compounds was estimated by the increase in the number of entries into open (light) sleeves and the time spent in them without increasing the total motor activity. This records the time spent in the closed sleeve and the number of attempts to enter the installation center. In the above model, the test compounds and the reference drug were injected intraperitoneally before the experiments. The control animals were administered as an emulsifier. Results were processed statistically (p < 0.05).

in vivo = settings: outbred, mouse, in vivo; mice, dead animals after 24 h
Procedure: as §2

[4] = Rotating rod test (neurotoxicity, myorelaxation); type: in vivo; settings: outbred, mouse, in vivo, ip, mice, myorelaxation in 50% of animals
Procedure: as §1, §2

rats [5] = assay: Open field test; type: in vivo; settings: 50 mg/kg i.p.; for Cells Examination, amount (absolute data during 5 min): control 2.4 ± 0.67; for Vertical Displacement, amount (absolute data during 5 min): control 7.0 ± 2.14; for Horizontal Displacement, amount (absolute data during 5 min): control 21.6 ± 2.25
Procedure: Open field test. The research-motor behavior of rats was studied on a modified “open field” model. For this purpose, an installation was used, the bottom of which is divided into squares with holes (cells). Experiments were performed in the daytime with natural light. Within 5 min of the experiment, the indicators of sedative and activating behavior were determined, namely the number of horizontal movements, standing on the hind legs (vertical movements), and sniffing of the cells. The number of animals on this model was eight for each compound, control, and reference drug.

Compound | The Time Spent in the Light Chamber When Playing CRPA + MESH after 24 h, Second Day (rats [1]) | The Time Spent in the Light Chamber during the Training of the CRPA, First Day (rats [1]) | response vs control in vivo at 100 mg/kg [2] | Latency of Convulsions, Induced by TSC, M ± M [2] | ED50 [3] | TI [3] | Total Time of Immobilization (mice) | Total Time of Active Swimming (mice) | Time Spent in the Open Arms (mouse) | Number of Entries into the Closed Arms (mouse) | Time Spent in the Center (mouse) | Time Spent in Closed Arms (mouse) | LD50 at 24 h (in vivo) | TD50 at 2 min [4] | Cells Examination, amount (absolute data during 5 min) (rats [5]) | Vertical Displacement, amount (absolute data during 5 min) (rats [5]) | Horizontal Displacement, amount (absolute data during 5 min) (rats [5])
NC(=O)CN1CCCC1=O [Piracetam, piracetam, reference compound] | 243.7 ± 8.4 s | 158.0 ± 5.9 s | – | – | – | – | – | – | – | – | – | – | – | – | – | – | –
CCc1nc(N2CCN(C(=O)Cn3cc(COc4nc(C(C)C)c5c(c4C#N)CCCC5)nn3)CC2)c(C#N)c2c1COC(C)(C)C2 [7h] | – | – | 150% | 15.2 ± 1.2 min | 27 mg/kg | 26.7 | 2.0 ± 0.8 s | 358.0 ± 8.2 s | 30.0 ± 2.4 s | 4.8 ± 1.34 | 28.4 ± 2.38 s | 246.6 ± 21.9 s | 720 mg/kg | > 500 mg/kg | 6.8 ± 3.12 | 6.0 ± 0.89 | 63.8 ± 14.02
CCCc1nc(N2CCN(C(=O)Cn3cc(COc4nc(C(C)C)c5c(c4C#N)CCC5)nn3)CC2)c(C#N)c2c1COC(C)(C)C2 [7c, 6-{4-[(4-{[(4-Cyano-1-isopropyl-6,7-dihydro-5H-cyclopenta[c]pyridin-3-yl)oxy]methyl}-1H-1,2,3-triazol-1-yl)acetyl]piperazin-1-yl}-3,3-dimethyl-8-propyl-3,4-dihydro-1H-pyrano [3,4-c]pyridine-5-carbonitrile] | – | – | 250% | 25.0 ± 4.1 min | 35 mg/kg | 18.6 | 10.0 ± 4.1 s | 350.0 ± 11.62 s | 10.6 ± 2.1 s | 2.6 ± 1.4 | 45.4 ± 4.7 s | 244.0 ± 10.67 s | 650 mg/kg | > 500 mg/kg | 4.2 ± 0.56 | 6.2 ± 1.03 | 57.2 ± 12.85
CCCc1nc(OCc2cn(CC(=O)N3CCN(c4nc(CCC)c5c(c4C#N)CC(C)(C)OC5)CC3)nn2)c(C#N)c2c1COC(C)(C)C2 [7u, 6-{4-[(4-{[(5-Cyano-3,3-dimethyl-8-propyl-3,4-dihydro-1H-pyrano [3,4-c]pyridin-6-yl)oxy]methyl}-1H-1,2,3-triazol-1-yl)acetyl]piperazin-1-yl}-3,3-dimethyl-8-propyl-3,4-dihydro-1H-pyrano [3,4-c]pyridine-5-carbonitrile] | – | – | 438% | 43.8 ± 1.03 min | 32 mg/kg | 21.3 | 84.0 ± 12.5 s | 276.0 ± 26.0 s | 20.0 ± 3.12 s | 4.4 ± 2.1 | 36.2 ± 2.38 s | 243.8 ± 20.7 s | 680 mg/kg | > 500 mg/kg | 2.2 ± 1.03 | 3.6 ± 0.67 | 41.8 ± 6.12
CCc1nc(OCc2cn(CC(=O)N3CCN(c4nc(CC)c5c(c4C#N)CC(C)(C)OC5)CC3)nn2)c(C#N)c2c1COC(C)(C)C2 [7q, 6-{4-[(4-{[(5-Cyano-8-ethyl-3,3-dimethyl-3,4-dihydro-1H-pyrano [3,4-c]pyridin-6-yl)oxy]methyl}-1H-1,2,3-triazol-1-yl)acetyl]piperazin-1-yl}-8-ethyl-3,3-dimethyl-3,4-dihydro-1H-pyrano [3,4-c]pyridine-5-carbonitrile] | – | – | 220% | 22.0 ± 2.2 min | 42 mg/kg | 18.8 | 24.0 ± 2.9 s | 336.0 ± 25.3 s | 24.0 ± 2.5 s | 5.0 ± 2.19 | 50.8 ± 3.4 s | 225.2 ± 13.87 s | 790 mg/kg | > 500 mg/kg | 7.4 ± 2.42 | 8.8 ± 1.61 | 60.2 ± 4.61
CCCc1nc(N2CCN(C(=O)Cn3cc(COc4nc(C)c5c(c4C#N)CC(C)(C)OC5)nn3)CC2)c(C#N)c2c1COC(C)(C)C2 [7o] | – | – | 304% | 30.4 ± 1.1 min | 28 mg/kg | 28.6 | 2.0 ± 0.4 s | 358.0 ± 12.0 s | 10.0 ± 2.78 s | 5.8 ± 1.03 | 61.0 ± 3.68 s | 229.0 ± 11.2 s | 800 mg/kg | > 500 mg/kg | 8.6 ± 3.25 | 9.6 ± 3.89 | 73.0 ± 13.37
CCCc1nc(N2CCN(C(=O)Cn3cc(COc4nc(CC)c5c(c4C#N)CC(C)(C)OC5)nn3)CC2)c(C#N)c2c1COC(C)(C)C2 [7r, 6-[(1-{2-[4-(5-Cyano-3,3-dimethyl-8-propyl-3,4-dihydro-1H-pyrano [3,4-c]pyridin-6-yl)piperazin-1-yl]-2-oxoethyl}-1H-1,2,3-triazol-4-yl)methoxy]-8-ethyl-3,3-dimethyl-3,4-dihydro-1H-pyrano [3,4-c]pyridine-5-carbonitrile] | – | – | 394% | 39.4 ± 1.11 min | 26 mg/kg | 27.3 | 36.0 ± 5.55 s | 324.0 ± 18.55 s | 7.0 ± 2.59 s | 3.4 ± 1.59 | 83.0 ± 5.1 s | 210.4 ± 10.3 s | 710 mg/kg | > 500 mg/kg | 4.4 ± 1.89 | 2.2 ± 1.36 | 30.0 ± 2.48
